Drawing on ChEMBL document CHEMBL1201862, “PubChem BioAssay data set” (2004), this text covers IC50, AC50 and EC50 for four compounds.

Calls of active or inactive are those of the source. A value given as a limit tells only on which side of the number the result lay.

The target in assay [1] is T1, Tyrosine-protein phosphatase non-receptor type 7 (Homo sapiens, UniProt P35236).
T1 sequence (P35236 whole entry): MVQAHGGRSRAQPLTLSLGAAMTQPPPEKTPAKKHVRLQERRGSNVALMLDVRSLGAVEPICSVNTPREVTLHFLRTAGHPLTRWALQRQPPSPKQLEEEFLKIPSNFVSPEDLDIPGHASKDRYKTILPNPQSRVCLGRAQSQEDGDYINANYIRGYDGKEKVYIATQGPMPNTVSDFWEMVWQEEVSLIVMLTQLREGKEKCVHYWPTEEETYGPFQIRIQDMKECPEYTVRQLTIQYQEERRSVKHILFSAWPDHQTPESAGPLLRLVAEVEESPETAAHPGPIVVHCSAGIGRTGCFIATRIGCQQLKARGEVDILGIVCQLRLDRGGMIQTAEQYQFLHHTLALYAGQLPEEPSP
It is filed as functional.

The target of assay [2] is Glyceraldehyde-3-phosphate dehydrogenase (Homo sapiens, UniProt P04406).
In assay [3] the target is T2, Dual specificity protein phosphatase 6 (Rattus norvegicus, UniProt Q64346).
The target in assay [4] is T2, Dual specificity protein phosphatase 6. It counts as functional.
The test system of assay [5] is Candida albicans. In words: fluconazole-resistant Candida strain growth inhibitors – CaCi-8 strain, dry powder, set 4, dose response (AID 488950). It counts as functional, organism-based.
Assay [6] has as its system Candida albicans. In words: single-agent antifungal toxicity in C. albicans – CaCi-2 strain, Alamar Blue, dry powder, set 2, counter-screen for antifungal drug resistance project, dose response (AID 488893). It counts as functional, organism-based. On the technique in general: Resazurin is reduced to fluorescent resorufin, in cell work by metabolically active cells.
In assay [7] the test system is Candida albicans. The assay can be described thus: single-agent toxicity toward C. albicans – CaCi-2 strain, no fluconazole, dry powder, set 4, counter-screen for reversing antifungal drug resistance, dose response (AID 488932). It is filed as functional, organism-based. (The purpose of a counterscreen is to sort out artefacts and off-target activity.)
For assay [8], the target named is T3, Voltage-gated N-type calcium channel alpha-1B subunit/Amyloid beta A4 precursor protein-binding family A member 1 (Homo sapiens, UniProt Q00975+Q02410). It counts as protein assay.
Assay [9] deals with T3, Voltage-gated N-type calcium channel alpha-1B subunit/Amyloid beta A4 precursor protein-binding family A member 1. It counts as protein assay. The source holds these as a separate data set.
For assay [10], the target named is T4, Apoptotic protease-activating factor 1 (Homo sapiens, UniProt O14727).
T4 sequence (O14727 whole entry): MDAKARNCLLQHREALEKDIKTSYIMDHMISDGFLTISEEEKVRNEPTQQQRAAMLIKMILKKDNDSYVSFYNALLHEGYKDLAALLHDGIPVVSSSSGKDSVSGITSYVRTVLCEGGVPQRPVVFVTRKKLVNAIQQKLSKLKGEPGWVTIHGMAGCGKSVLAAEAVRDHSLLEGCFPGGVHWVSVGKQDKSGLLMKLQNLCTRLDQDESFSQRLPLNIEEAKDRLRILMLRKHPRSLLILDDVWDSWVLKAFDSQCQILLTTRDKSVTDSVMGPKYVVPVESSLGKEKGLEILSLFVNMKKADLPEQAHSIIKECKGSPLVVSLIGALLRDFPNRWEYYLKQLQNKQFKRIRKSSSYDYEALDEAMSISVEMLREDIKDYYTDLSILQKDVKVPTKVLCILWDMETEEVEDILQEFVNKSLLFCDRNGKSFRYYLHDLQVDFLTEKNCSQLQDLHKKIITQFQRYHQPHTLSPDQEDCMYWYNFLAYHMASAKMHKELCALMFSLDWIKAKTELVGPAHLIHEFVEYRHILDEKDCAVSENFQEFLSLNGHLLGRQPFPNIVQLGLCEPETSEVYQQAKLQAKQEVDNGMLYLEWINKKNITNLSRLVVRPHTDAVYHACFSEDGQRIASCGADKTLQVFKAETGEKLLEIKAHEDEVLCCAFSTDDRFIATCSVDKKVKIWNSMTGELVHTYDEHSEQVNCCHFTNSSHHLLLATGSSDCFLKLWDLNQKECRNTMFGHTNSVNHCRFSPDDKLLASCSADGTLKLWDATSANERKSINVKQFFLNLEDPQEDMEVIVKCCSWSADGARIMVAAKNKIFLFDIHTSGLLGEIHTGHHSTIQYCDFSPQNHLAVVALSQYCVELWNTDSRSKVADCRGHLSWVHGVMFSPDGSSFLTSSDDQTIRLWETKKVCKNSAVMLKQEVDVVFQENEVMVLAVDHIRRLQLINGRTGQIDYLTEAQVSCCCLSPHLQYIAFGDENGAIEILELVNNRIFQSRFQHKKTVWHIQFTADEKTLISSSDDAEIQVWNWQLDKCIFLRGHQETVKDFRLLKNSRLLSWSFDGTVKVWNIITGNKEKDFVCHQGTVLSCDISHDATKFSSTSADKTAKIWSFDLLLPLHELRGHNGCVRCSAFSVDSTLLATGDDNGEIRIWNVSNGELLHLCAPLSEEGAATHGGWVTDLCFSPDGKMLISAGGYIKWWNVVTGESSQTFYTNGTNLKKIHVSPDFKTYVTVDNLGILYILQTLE
The assay can be described thus: activation of Apaf-1 mediated apoptosis – fluorescent, uHTS hits, dose response (AID 588554). It counts as functional.

Assay [11] has as its target T4, Apoptotic protease-activating factor 1. In words: SAR analysis of small molecule Activators of Apaf-1 in a Fluorescent assay. It is filed as functional. The following applies: read-out: EC50_Mean.
The target of assay [12] is T5, Small ubiquitin-related modifier 1 (Homo sapiens, UniProt P63165). The assay can be described thus: SUMO1 protein interaction blockers, potency – biochemical, fluorescence polarization, uHTS hits, dose response (AID 624382). It counts as functional. The following applies: read-out: IC50_Mean. On the technique in general: Polarisation of emitted light reports the rotation of a fluorescent probe.

In assay [13] the target is T5, Small ubiquitin-related modifier 1. The assay can be described thus: SUMO1 protein-protein binding blockers, potency – biochemical, FRET, dose response (AID 624383). It counts as functional. The following applies: read-out: IC50_Mean.
In assay [14] the target is T6, Neuropeptide Y receptor type 1 (Homo sapiens, UniProt P25929).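 Further: HEK293 cells with a CNG channel challenged with NPY then isoproterenol; potency as antagonist that reverses NPY suppression of cAMP signal.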
T6 sequence (P25929 whole entry): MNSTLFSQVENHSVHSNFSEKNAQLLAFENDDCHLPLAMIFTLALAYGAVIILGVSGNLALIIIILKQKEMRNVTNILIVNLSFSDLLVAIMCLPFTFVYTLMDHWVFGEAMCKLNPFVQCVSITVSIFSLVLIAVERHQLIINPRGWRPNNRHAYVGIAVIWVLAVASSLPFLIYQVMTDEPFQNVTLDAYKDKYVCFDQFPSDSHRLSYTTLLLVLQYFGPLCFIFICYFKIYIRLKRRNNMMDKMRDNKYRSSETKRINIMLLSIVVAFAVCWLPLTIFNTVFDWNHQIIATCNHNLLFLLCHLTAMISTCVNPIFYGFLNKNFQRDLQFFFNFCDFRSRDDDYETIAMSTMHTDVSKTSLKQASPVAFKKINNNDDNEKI
It is filed as functional.

Assay [15] addresses T7, Neuropeptide Y receptor type 2 (Homo sapiens, UniProt P49146).
T7 sequence (P49146 whole entry): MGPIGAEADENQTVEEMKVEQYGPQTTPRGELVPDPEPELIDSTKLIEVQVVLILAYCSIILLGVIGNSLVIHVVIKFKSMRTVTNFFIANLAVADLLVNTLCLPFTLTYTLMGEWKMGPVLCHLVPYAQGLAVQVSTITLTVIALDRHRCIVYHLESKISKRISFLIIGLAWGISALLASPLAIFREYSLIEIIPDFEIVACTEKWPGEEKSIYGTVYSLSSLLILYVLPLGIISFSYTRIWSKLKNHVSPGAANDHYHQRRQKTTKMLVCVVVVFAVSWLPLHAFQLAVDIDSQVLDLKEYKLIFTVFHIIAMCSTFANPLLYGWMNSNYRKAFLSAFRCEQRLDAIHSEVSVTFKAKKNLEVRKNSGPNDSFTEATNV
It is filed as functional, cell-based.

For a further assay, the target named is Phospholipase A2 (Homo sapiens, UniProt P04054). In words: phospholipase A2 activity inhibition – biochemical, set 2, counter-screen for ATG4B inhibitor project, dose response (AID 588586). It is filed as functional.
For the next assay, the target named is T8, Cysteine protease ATG4B (Homo sapiens, UniProt Q9Y4P1).
T8 sequence (Q9Y4P1 whole entry): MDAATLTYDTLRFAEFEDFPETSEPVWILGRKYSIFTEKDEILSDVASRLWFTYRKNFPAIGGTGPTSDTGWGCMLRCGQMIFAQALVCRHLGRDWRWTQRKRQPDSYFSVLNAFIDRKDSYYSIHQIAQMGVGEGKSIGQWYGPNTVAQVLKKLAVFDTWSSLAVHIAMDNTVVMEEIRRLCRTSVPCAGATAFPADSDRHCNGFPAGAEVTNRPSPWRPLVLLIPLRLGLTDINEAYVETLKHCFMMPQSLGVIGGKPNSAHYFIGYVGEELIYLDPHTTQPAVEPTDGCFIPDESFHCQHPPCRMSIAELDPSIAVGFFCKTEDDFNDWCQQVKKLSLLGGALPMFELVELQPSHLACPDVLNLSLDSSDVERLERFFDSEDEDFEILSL
The assay can be described thus: autophagin-1 cysteine protease inhibition – biochemical, fluorescence, set 2, dose response (AID 588584). It is filed as functional.

By AC50 is commonly meant the concentration giving half of the maximal activity seen.
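Wherever EC50 Mean is given: caspase-3 cleavage of fluorogenic Rh110 DEVD substrate downstream of apoptosome activation.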

T5 sequence (P63165 whole entry): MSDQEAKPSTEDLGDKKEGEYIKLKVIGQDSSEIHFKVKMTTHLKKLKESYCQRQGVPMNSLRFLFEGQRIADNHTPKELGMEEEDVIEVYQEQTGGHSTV
T3 sequence (Q00975 whole entry): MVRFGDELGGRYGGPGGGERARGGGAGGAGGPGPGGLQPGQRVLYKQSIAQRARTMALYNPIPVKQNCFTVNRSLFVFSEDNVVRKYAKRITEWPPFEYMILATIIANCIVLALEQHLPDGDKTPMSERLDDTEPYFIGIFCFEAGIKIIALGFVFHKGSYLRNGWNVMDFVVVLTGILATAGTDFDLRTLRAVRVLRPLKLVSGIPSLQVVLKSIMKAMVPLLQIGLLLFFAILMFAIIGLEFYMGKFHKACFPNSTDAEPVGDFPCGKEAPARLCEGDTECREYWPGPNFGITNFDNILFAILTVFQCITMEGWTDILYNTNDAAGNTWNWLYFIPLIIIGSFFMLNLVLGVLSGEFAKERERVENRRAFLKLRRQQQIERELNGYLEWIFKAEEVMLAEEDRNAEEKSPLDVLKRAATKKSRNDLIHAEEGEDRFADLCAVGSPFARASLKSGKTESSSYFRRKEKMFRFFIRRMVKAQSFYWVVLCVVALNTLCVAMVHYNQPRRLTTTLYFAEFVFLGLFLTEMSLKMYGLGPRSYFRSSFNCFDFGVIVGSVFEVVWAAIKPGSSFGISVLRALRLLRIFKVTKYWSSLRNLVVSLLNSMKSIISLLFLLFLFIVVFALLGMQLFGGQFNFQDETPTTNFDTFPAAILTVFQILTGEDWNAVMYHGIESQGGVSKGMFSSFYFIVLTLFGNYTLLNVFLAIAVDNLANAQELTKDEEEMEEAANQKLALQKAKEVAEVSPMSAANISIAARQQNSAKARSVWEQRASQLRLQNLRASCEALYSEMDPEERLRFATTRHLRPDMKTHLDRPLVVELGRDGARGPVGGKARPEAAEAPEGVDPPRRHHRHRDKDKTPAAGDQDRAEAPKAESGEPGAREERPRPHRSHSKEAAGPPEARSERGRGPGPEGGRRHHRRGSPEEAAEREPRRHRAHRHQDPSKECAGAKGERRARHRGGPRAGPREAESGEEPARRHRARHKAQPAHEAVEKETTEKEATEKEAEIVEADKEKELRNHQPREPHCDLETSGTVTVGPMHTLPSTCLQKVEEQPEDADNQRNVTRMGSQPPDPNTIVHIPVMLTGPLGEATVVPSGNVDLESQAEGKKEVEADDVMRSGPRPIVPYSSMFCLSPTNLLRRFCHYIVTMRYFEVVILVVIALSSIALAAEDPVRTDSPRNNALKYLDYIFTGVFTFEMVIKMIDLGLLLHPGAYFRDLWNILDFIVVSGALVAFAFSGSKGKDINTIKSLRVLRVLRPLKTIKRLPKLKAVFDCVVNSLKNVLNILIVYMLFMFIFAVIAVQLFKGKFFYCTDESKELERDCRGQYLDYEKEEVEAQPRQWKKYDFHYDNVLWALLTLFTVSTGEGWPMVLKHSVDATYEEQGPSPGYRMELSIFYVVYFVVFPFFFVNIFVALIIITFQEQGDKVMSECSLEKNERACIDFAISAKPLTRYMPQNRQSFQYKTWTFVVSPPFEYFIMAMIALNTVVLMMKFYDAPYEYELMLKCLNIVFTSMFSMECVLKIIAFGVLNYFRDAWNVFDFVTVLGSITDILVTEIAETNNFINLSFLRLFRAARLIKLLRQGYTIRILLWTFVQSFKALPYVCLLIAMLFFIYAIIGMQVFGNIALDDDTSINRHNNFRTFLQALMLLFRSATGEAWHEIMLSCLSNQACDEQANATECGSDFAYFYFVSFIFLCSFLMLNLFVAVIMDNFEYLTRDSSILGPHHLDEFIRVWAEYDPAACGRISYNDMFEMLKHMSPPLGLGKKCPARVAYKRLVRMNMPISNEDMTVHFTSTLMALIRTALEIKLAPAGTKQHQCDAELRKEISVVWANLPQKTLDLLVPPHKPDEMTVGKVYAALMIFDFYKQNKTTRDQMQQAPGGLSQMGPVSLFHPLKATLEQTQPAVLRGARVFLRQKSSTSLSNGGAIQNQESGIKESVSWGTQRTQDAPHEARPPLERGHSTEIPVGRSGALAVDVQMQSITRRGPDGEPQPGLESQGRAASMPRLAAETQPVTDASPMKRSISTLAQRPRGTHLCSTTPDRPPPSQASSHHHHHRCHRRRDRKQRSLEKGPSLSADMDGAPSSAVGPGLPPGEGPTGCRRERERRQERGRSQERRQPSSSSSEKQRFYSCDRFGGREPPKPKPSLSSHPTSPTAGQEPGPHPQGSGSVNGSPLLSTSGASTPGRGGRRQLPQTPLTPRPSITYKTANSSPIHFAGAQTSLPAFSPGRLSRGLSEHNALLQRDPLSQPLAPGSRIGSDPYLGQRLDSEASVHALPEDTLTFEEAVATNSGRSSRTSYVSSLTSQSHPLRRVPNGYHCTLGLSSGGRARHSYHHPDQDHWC
T3 sequence (Q02410 whole entry): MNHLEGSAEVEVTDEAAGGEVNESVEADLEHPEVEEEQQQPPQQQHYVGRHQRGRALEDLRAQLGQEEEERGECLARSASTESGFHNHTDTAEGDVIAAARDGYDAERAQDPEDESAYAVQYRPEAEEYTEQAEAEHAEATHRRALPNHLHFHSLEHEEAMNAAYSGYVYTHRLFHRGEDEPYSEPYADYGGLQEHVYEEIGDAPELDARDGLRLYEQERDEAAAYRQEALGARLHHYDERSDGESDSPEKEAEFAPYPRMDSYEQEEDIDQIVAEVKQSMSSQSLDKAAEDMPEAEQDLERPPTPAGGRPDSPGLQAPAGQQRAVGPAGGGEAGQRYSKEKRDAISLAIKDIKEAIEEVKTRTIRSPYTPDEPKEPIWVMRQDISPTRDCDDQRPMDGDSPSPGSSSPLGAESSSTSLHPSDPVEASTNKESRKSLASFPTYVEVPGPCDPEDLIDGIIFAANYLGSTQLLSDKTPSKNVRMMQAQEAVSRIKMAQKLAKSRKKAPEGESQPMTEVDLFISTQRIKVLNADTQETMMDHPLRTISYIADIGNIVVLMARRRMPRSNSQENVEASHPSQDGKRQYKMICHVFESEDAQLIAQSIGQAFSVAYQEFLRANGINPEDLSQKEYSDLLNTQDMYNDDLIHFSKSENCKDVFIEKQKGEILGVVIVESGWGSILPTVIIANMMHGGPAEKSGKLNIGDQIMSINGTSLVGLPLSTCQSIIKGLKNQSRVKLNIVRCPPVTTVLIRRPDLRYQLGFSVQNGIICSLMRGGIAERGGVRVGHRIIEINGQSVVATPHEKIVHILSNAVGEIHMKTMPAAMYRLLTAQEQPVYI
T2 sequence (Q64346 whole entry): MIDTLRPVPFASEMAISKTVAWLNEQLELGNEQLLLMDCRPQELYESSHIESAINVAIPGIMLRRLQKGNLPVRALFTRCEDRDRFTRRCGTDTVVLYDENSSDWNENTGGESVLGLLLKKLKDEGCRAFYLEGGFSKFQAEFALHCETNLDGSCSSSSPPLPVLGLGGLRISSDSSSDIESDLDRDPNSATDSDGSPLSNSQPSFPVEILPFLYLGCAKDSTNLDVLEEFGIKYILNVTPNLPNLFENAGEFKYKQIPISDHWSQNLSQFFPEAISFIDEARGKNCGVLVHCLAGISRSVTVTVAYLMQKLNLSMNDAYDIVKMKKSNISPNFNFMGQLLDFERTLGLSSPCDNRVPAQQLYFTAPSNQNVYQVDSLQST
Glyceraldehyde-3-phosphate dehydrogenase, sequence (P04406 whole entry): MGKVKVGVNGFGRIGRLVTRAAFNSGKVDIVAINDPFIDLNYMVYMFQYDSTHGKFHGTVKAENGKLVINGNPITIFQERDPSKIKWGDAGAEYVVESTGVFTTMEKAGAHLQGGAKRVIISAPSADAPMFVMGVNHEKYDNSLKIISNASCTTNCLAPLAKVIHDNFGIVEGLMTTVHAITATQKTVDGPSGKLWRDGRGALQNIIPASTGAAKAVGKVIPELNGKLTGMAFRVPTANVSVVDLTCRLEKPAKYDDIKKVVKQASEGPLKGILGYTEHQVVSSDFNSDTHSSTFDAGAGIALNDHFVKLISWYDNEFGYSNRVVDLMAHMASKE
Phospholipase A2, sequence (P04054 whole entry): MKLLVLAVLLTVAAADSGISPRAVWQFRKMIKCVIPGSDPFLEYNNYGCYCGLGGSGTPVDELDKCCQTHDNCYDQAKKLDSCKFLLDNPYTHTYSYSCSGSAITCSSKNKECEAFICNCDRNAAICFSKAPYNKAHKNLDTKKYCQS

In the case of `CCn1c(SCC(=O)O)nc2sc3c(c2c1=O)CCCC3`, the IC50 was > 100 µM (not active) in [1], > 100 µM (not active) in assay [2], > 100 µM (inactive) in assay [3] and > 100 µM (inactive) in assay [4].

As to `COCCC(=O)N1CCN(c2ccnc3cc(Cl)ccc23)CC1`, the AC50 with Candida albicans [5] is 72.5 µM (active); in the assay with Candida albicans [6], > 260 µM (inactive); with Candida albicans [7], 136 µM (active).

`O=C(Nc1nc2ccsc2c(=O)s1)c1ccco1`: the IC50 was 11.8 µM (active) in assay [8], > 50 µM (inactive) in assay [9], > 66.6 µM (inactive) in assay [12] and 15.9 µM (active) in assay [13]. Moreover, the values for the EC50 in assay [10] and in [11] were 22.8 µM (active) and 59 µM (active), respectively.

For the compound `Cc1ccccc1C(=O)c1cccn1CC(=O)NCCN1CCN(c2cccc(C)c2C)CC1`, the IC50 in assay [14] was 6.43 µM (active); in assay [15] it was 13.2 µM (not active); on Phospholipase A2, 17.7 µM (active); at Cysteine protease ATG4B, 25.3 µM (inactive).
